What follows are compounds tested against T1, recombinant full-length human prolyl endopeptidase (PREP) (Homo sapiens, UniProt P48147) (assay: Biochemical human prolyl endopeptidase (PREP) assay with fluorescently labelled substrate). Settings: substrate Z-Gly-Pro-AMC 50 μM, 32° C., 60 min; some as mean values from multiple independent determinations.
T1 construct: To recombinant full-length human prolyl endopeptidase (PREP, R&D-Systems, 4308-SE); purchased R&D-Systems 4308-SE
T1 sequence (P48147 1-710): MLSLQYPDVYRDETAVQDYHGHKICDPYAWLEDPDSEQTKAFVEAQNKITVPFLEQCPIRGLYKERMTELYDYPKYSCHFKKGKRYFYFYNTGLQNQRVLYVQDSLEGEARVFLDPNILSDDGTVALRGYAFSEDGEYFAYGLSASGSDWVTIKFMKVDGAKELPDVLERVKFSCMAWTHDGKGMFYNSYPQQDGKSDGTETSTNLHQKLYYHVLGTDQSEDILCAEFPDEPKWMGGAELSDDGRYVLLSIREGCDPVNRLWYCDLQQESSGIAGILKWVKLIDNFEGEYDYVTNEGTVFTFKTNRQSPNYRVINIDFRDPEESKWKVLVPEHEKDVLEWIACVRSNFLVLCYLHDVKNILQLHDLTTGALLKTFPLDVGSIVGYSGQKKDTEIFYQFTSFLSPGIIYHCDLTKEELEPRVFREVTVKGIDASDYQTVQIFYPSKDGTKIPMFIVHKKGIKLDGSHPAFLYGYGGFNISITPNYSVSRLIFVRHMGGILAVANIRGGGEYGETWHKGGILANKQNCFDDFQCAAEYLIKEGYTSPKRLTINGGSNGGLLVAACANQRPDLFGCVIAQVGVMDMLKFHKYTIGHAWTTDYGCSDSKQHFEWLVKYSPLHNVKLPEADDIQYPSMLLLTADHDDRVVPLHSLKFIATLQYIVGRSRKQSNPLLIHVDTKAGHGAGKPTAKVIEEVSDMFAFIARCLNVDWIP
In short: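 0.4 nM (final, example) recombinant PREP in pH 7.5 Tris buffer with EDTA, GSH, BSA and Brij-35; compounds at 1 nM to 30 μM. Reaction started with 50 μM Z-Gly-Pro-AMC and followed by fluorescence (ex 360/em 465 nm) at 32° C for 60 min. IC50 interpolated from percent activity based on initial slopes.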

SMILES	IC50 [nM]
O=C(C1CC(C(F)(F)F)Cc2nn(Cc3ncc(F)cc3Cl)c(=O)n21)N1CCC(F)(F)C1 (racemic) [Example 575, (5RS,7RS)-2-[(3-Chloro-5-fluoropyridin-2-yl)methyl]-5-[(3,3-difluoropyrrolidin-1-yl)carbonyl]-7-(trifluoromethyl)-5,6,7,8-tetrahydro[1,2,4]triazolo[4,3-a]pyridin-3(2H)-one]	7.4
CC1CCC(C(=O)N2C[C@@H](F)[C@@H](F)C2)n2c1nn(Cc1ccnc(C(F)(F)F)c1F)c2=O (mixture of isomers) [Example 322, (5RS,8RS)-5-{[(3R,4S)-3,4-Difluoropyrrolidin-1-yl]carbonyl}-2-{[3-fluoro-2-(trifluoromethyl)pyridin-4-yl]methyl}-8-methyl-5,6,7,8-tetrahydro[1,2,4]triazolo[4,3-a]pyridin-3(2H)-one]	0.94
O=C([C@@H]1CCCc2nn(Cc3ccc(Cl)cn3)c(=O)n21)N1CCSC1 [Example 505, (5S)-2-[(5-Chloropyridin-2-yl)methyl]-5-(1,3-thiazolidin-3-ylcarbonyl)-5,6,7,8-tetrahydro[1,2,4]triazolo[4,3-a]pyridin-3(2H)-one]	1.4
COc1cccc(Cn2nc3n(c2=O)C(C(=O)N2CCC(F)(F)C2)CCC3)c1 (racemic) [Example 48, (5RS)-5-[(3,3-Difluoropyrrolidin-1-yl)carbonyl]-2-(3-methoxybenzyl)-5,6,7,8-tetrahydro[1,2,4]triazolo[4,3-a]pyridin-3(2H)-one]	5
CC1CCC(C(=O)N2CC[C@H](F)C2)n2c1nn(Cc1ccc(C(F)(F)F)nc1)c2=O (mixture of isomers) [Example 220, (5RS,8RS)-5-{[(3S)-3-Fluoropyrrolidin-1-yl]carbonyl}-8-methyl-2-{[6-(trifluoromethyl)pyridin-3-yl]methyl}-5,6,7,8-tetrahydro[1,2,4]triazolo[4,3-a]pyridin-3(2H)-one]	1.5
O=C(C1CCC(C(F)(F)F)c2nn(Cc3ncccc3F)c(=O)n21)N1CC[C@H](F)C1 (mixture of isomers) [Example 273, (5RS,8RS)-2-[(3-Fluoropyridin-2-yl)methyl]-5-{[(3S)-3-fluoropyrrolidin-1-yl]carbonyl}-8-(trifluoromethyl)-5,6,7,8-tetrahydro[1,2,4]triazolo[4,3-a]pyridin-3(2H)-one]	7.6
COc1ccc(Cn2nc3n(c2=O)[C@H](C(=O)N2C[C@@H](F)[C@@H](F)C2)CCC3)cn1 [Example 431, (5S)-5-{[(3R,4S)-3,4-Difluoropyrrolidin-1-yl]carbonyl}-2-[(6-methoxypyridin-3-yl)methyl]-5,6,7,8-tetrahydro[1,2,4]triazolo[4,3-a]pyridin-3(2H)-one]	0.995
CC(c1ccc(C(F)(F)F)nc1)n1nc2n(c1=O)[C@H](C(=O)N1CC[C@H](F)C1)CCC2 (single isomer, unassigned) [Example 217]	1.2
O=C([C@@H]1CCCc2nn(Cc3cc4cccnc4nc3C(F)(F)F)c(=O)n21)N1CC(F)C1 [Example 420, (5S)-5-[(3-Fluoroazetidin-1-yl)carbonyl]-2-{[2-(trifluoromethyl)-1,8-naphthyridin-3-yl]methyl}-5,6,7,8-tetrahydro[1,2,4]triazolo[4,3-a]pyridin-3(2H)-one]	1.7
O=C([C@@H]1CCCc2nn(Cc3ccc(F)cc3F)c(=O)n21)N1CC(F)C1 [Example 486, (5S)-2-(2,4-Difluorobenzyl)-5-[(3-fluoroazetidin-1-yl)carbonyl]-5,6,7,8-tetrahydro[1,2,4]triazolo[4,3-a]pyridin-3(2H)-one]	0.465
Cn1ccc(Cn2nc3n(c2=O)C(C(=O)N2CCC(F)(F)C2)CCC3)n1 (racemic) [Example 90, (5RS)-5-[(3,3-Difluoropyrrolidin-1-yl)carbonyl]-2-[(1-methyl-1H-pyrazol-3-yl)methyl]-5,6,7,8-tetrahydro[1,2,4]triazolo[4,3-a]pyridin-3(2H)-one]	9.8

— US10722501B2 (BAYER AKTIENGESELLSCHAFT, priority 2016, dated 2020)
